Measurements: paper PMC6270530, “Structural Characterization of de Novo Designed L5K5W Model Peptide Isomers with Potent Antimicrobial and Varied Hemolytic Activities” (Molecules, 2013)
No end group written: not given here.

Assays:
[1] = tested on: Shigella dysentariae ATCC 9752; assay type: cell-based; conditions: broth microdilution, 1–128 μg/mL two-fold dilutions; triplicate, value reproduced twice or three times
Description: (§1) The antimicrobial activity of each peptide was determined against four strains of Gram-positive bacteria (Bacillus subtilis ATCC 6633, Staphylococcus aureus ATCC 6538p, Staphylococcus epidermis ATCC 12228, and Micrococcus luteus ATCC 10240) and five strains of Gram-negative bacteria (Escherichia coli ATCC 25922, Shigella dysentariae ATCC 9752, Salmonella typhomurium ATCC 14028, Klebsiella pneumoniae ATCC 10031, and Pseudomonas aeruginosa ATCC 27853). In addition, a methicillin-resistant Staphylococcus aureus strain, MRSA-TK784 [21, 42], was employed as a multi-drug resistant bacterium. Antimicrobial susceptibility was measured as the minimal inhibitory concentration (MIC), which was determined by the standard broth microdilution method, as described previously. […] The tests were performed in triplicate, and the MIC values that were reproduced twice or three times in the three independent measurements were recorded.

[2] = tested on: 4 Gram-positive strains tested; assay type: cell-based, Gram-positive bacteria; conditions: against 4 Gram-positive strains tested
Description: (§2) Table 1 summarizes the MIC values of our model peptide isomers against various bacterial species, including four Gram-positive, five Gram-negative and a multi-drug resistant strain. […] In addition, all of the peptides were fairly active (MICs ≤ 16 μg/mL) against the MRSA-TK784 strain, which is not susceptible to β-lactam antibiotics and protein synthesis inhibitors and moderately resistant to vancomycin [21, 42].
as §1

[3] = tested on: 5 Gram-negative strains tested; assay type: cell-based, Gram-negative bacteria; conditions: against 5 Gram-negative strains tested
Description: as §2, §1

[4] = tested on: all of the 9 strains tested; assay type: cell-based, Gram-positive and Gram-negative bacteria; conditions: against all of the 9 strains tested
Description: as §2, §1

[5] = tested on: human red blood cells; assay type: cell-based
Description: The hemolytic assay was performed as described previously. In brief, suspensions of human red blood cells (10% v/v in PBS) were treated for 1 h with various concentrations (1–128 μg/mL, two-fold serial dilutions) of the peptides. The absorbance of the supernatant was then measured at 550 nm. The relative value to 100% hemolysis of human red blood cells treated with 0.2% Triton X-100 was defined as the percentage of hemolysis. The tests were performed using triplicate samples, and the average values of the three independent measurements were recorded. The minimal hemolytic concentration (MHC) value was determined as the lowest peptide concentration that produces more than 5% hemolysis.

[6] = tested on: MRSA-TK784; assay type: cell-based, methicillin-resistant Staphylococcus aureus; conditions: Methicillin-Resistant S. aureus; broth microdilution, 1–128 μg/mL two-fold dilutions; triplicate
Description: as §1

Substance	Minimal inhibitory concentration, S. dysentariae [1]	GM (geometric mean of MICs), Gram (+) [2]	GM (geometric mean of MICs), Gram (−) [3]	GM (geometric mean of MICs), Gram (+,−) [4]	hemolytic activity (in words) [5]	Minimal inhibitory concentration, MRSA-TK784 [6]
KKLLKKLLKWL-NH2 [W10]	1 µg/mL	1.2 µg/mL	1.7 µg/mL	1.5 µg/mL	–	–
KKLLKWLKKLL-NH2 [W6]	2 µg/mL	–	3.5 µg/mL	3.2 µg/mL	somewhat hemolytic	–
KLLKKLLKWLK-NH2 [W9]	2 µg/mL	2.4 µg/mL	2.3 µg/mL	2.3 µg/mL	–	–
KLLKWLKKLLK-NH2 [W5]	2 µg/mL	2.0 µg/mL	2.6 µg/mL	2.3 µg/mL	–	–
KWLKKLLKKLL-NH2 [W2]	1 µg/mL	2.4 µg/mL	2.3 µg/mL	2.3 µg/mL	–	–
LKKLLKKLLKW-NH2 [W11]	2 µg/mL	2.4 µg/mL	3.5 µg/mL	2.9 µg/mL	–	16 µg/mL
LKKLLKWLKKL-NH2 [W7]	2 µg/mL	2.4 µg/mL	3.0 µg/mL	2.7 µg/mL	–	–
LKWLKKLLKKL-NH2 [W3]	2 µg/mL	–	3.5 µg/mL	3.2 µg/mL	–	–
LLKKLLKWLKK-NH2 [W8]	4 µg/mL	3.4 µg/mL	4.6 µg/mL	4.0 µg/mL	–	–
LLKWLKKLLKK-NH2 [W4]	2 µg/mL	2.4 µg/mL	3.5 µg/mL	2.9 µg/mL	–	–
WLKKLLKKLLK-NH2 [W1]	2 µg/mL	2.4 µg/mL	3.0 µg/mL	2.7 µg/mL	–	8 µg/mL
